Reference: ChEMBL document CHEMBL1154091, “Reaction of the antitumor antibiotic olivomycin I with aryl diazonium salts. Synthesis, cytotoxic and antiretroviral potency of 5-aryldiazenyl-6-O-deglycosyl derivatives of olivomycin I” (Bioorg Med Chem, 2009)
The source made the active and inactive calls. The rule behind the calls is not given here.

Key:
L1210 = assay: Antiproliferative against mouse L1210 cells after 48 hrs; type: functional, cell-based; conditions: L1210, 48 h
CCRF-CEM = assay: Antiproliferative against human CEM cells after 72 hrs; type: cell-based
[1] = Antiproliferative against human Molt4/C8 cells after 72 hrs; type: functional, cell-based; conditions: MOLT-4, 72 h
HCT-116 = assay: Antiproliferative against human HCT116 cells after 72 hrs; type: functional, cell-based; conditions: HCT-116, 72 h
K562 = assay: Antiproliferative against human K562 cells after 72 hrs; type: functional, cell-based; conditions: K562, 72 h
[2] = biological target: T1, DNA topoisomerase 1 (Homo sapiens) (UniProt P11387); assay: Inhibition of DNA topoisomerase 1 assessed as partial inhibition of unwinding of supercoiled pBR322 DNA at 20 uM by agarose gel electrophoresis
T1 sequence (whole entry): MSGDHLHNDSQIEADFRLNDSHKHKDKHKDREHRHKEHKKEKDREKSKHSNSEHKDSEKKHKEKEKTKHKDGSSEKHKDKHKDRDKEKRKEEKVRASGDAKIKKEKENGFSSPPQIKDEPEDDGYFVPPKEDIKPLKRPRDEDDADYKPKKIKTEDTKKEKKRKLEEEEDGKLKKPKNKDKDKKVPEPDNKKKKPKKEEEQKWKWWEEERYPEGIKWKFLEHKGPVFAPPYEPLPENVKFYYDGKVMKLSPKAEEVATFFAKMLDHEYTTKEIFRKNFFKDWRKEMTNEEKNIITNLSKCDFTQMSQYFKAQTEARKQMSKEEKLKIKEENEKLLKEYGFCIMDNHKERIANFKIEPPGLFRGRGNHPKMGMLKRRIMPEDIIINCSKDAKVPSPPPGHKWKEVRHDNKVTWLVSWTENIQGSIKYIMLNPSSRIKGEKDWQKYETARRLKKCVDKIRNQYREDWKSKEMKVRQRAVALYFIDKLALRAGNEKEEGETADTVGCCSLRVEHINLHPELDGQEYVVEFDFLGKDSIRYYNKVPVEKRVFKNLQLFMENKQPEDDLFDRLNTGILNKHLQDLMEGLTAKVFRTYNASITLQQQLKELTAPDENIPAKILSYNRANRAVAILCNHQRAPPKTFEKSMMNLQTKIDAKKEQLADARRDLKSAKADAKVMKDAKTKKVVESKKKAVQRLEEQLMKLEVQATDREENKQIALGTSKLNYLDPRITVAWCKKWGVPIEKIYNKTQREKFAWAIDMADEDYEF

[3] = tested on: Vesicular stomatitis virus; assay: Antiviral activity against VSV infected in HEL cells at subtoxic concentration; type: functional, organism-based
Influenza B virus = assay: Antiviral activity against influenza B virus infected in […] cells at subtoxic concentration; type: functional, organism-based
Human alphaherpesvirus 1 = assay: Antiviral activity against HSV1 infected in HEL cells at subtoxic concentration; type: functional, organism-based
Coxsackievirus B4 [4] = assay: Antiviral activity against Coxsackievirus B4 infected in african green monkey Vero cells at subtoxic concentration; type: functional, organism-based
Human respirovirus 3 = assay: Antiviral activity against Parainfluenza virus 3 infected in african green monkey Vero cells at subtoxic concentration; type: functional, organism-based
Coxsackievirus B4 [5] = assay: Antiviral activity against Coxsackievirus B4 infected in human HeLa cells at subtoxic concentration; type: functional, organism-based
[6] = tested on: Respiratory syncytial virus; assay: Antiviral activity against Respiratory syncytial virus infected in human HeLa cells at subtoxic concentration; type: functional, organism-based
[7] = tested on: Human immunodeficiency virus 1; assay: Antiviral activity against HIV1 3B infected in human CEM cells assessed as drug level required for protection against virus-induced cytopathogenicity after 4 days; type: functional, organism-based; conditions: Human immunodeficiency virus 1, 3B, CCRF-CEM, 96 h
[8] = tested on: Human immunodeficiency virus 2; assay: Antiviral activity against HIV2 ROD infected in human CEM cells assessed as drug level required for protection against virus-induced cytopathogenicity after 4 days; type: functional, organism-based; conditions: Human immunodeficiency virus 2, ISOLATE ROD, CCRF-CEM, 96 h
Vaccinia virus = assay: Antiviral activity against Vaccinia virus infected in HEL cells at subtoxic concentration; type: functional, organism-based; conditions: Orthopoxvirus vaccinia
Sindbis virus = assay: Antiviral activity against Sindbis virus infected in african green monkey Vero cells at subtoxic concentration; type: functional, organism-based
Influenza A virus = assay: Antiviral activity against influenza A virus H1N1:H3N2 infected in […] cells at subtoxic concentration; type: functional, organism-based
[9] = biological target: T1, DNA topoisomerase 1 (Homo sapiens); assay: Inhibition of DNA topoisomerase 1 assessed as inhibition of unwinding of supercoiled pBR322 DNA at 20 uM by agarose gel electrophoresis
[10] = tested on: Mammalian orthoreovirus 1; assay: Antiviral activity against Reovirus 1 infected in african green monkey Vero cells at subtoxic concentration; type: functional, organism-based
[11] = Selectivity index, ratio of IC50 for human CEM cells to EC50 for HIV1 3B; type: toxicity, cell-based, CCRF-CEM; conditions: read-out: Ratio IC50/EC50
[12] = tested on: Vesicular stomatitis virus; assay: Antiviral activity against VSV infected in human HeLa cells at subtoxic concentration; type: functional, organism-based
Human alphaherpesvirus 2 = assay: Antiviral activity against HSV2 infected in HEL cells at subtoxic concentration; type: functional, organism-based
Punta Toro virus = assay: Antiviral activity against Punta Toro virus infected in african green monkey Vero cells at subtoxic concentration; type: functional, organism-based
[13] = biological target: T1, DNA topoisomerase 1 (Homo sapiens); assay: Inhibition of DNA topoisomerase 1 assessed as partial inhibition of unwinding of supercoiled pBR322 DNA at 5 uM by agarose gel electrophoresis
[14] = biological target: T1, DNA topoisomerase 1 (Homo sapiens); assay: Inhibition of DNA topoisomerase 1 assessed as inhibition of unwinding of supercoiled pBR322 DNA at 10 to 20 uM by agarose gel electrophoresis

Row | Compound | IC50 (L1210) | IC50 (CCRF-CEM) | IC50 [1] | Activity [3] | Activity (Influenza B virus) | Activity (Human alphaherpesvirus 1) | Activity (Coxsackievirus B4 [4]) | Activity (Human respirovirus 3) | Activity (Coxsackievirus B4 [5]) | Activity [6] | EC50 [7] | EC50 [8] | Activity (Vaccinia virus) | Activity (Sindbis virus) | Activity (Influenza A virus) | Activity [9] | Activity [10] | selectivity ratio [11] | Activity [12] | Activity (Human alphaherpesvirus 2) | other results
1 | CO[C@@H]1[C@H](O)C[C@@H](O[C@@H]2C[C@H](Oc3cc(OC(C)=O)c4c(O)c5c(cc4c3)C[C@@H]([C@H](OC)C(=O)[C@@H](O)[C@@H](C)O)[C@H](O[C@H]3C[C@@H](O[C@H]4C[C@@H](O[C@H]6C[C@](C)(O)[C@@H](OC(=O)C(C)C)[C@H](C)O6)[C@H](O)[C@@H](C)O4)[C@H](O)[C@@H](C)O3)C5=O)O[C@H](C)[C@@H]2OC(C)=O)O[C@@H]1C | 8 nM | 2.4 nM | 22 nM |  |  |  |  |  |  |  |  |  |  |  |  |  |  |  |  |  | 
2 | CO[C@H](C(=O)[C@@H](O)[C@@H](C)O)[C@@H]1Cc2cc3c(/N=N/c4ccc(C)cc4)c(O)cc(O)c3c(O)c2C(=O)[C@H]1O[C@H]1C[C@@H](O[C@H]2C[C@@H](O[C@H]3C[C@](C)(O)[C@@H](OC(=O)C(C)C)[C@H](C)O3)[C@H](O)[C@@H](C)O2)[C@H](O)[C@@H](C)O1 |  |  |  |  |  |  |  |  |  |  |  |  |  |  |  |  |  |  |  |  | IC50 (HCT-116): 2400 nM; IC50 (K562): 2000 nM; Activity [2]: Active
3 | CO[C@H](C(=O)[C@@H](O)[C@@H](C)O)[C@@H]1Cc2cc3c(/N=N/c4ccc(Cl)c(Cl)c4)c(O)cc(O)c3c(O)c2C(=O)[C@H]1O[C@H]1C[C@@H](O[C@H]2C[C@@H](O[C@H]3C[C@](C)(O)[C@@H](OC(=O)C(C)C)[C@H](C)O3)[C@H](O)[C@@H](C)O2)[C@H](O)[C@@H](C)O1 | 5600 nM | 2600 nM | 1900 nM | inactive | inactive | inactive | inactive | inactive | inactive | inactive | 500 nM | ≥ 800 nM | inactive | inactive | inactive | Active | inactive | 5.2 | inactive | inactive | Activity (Punta Toro virus): inactive
4 | CO[C@H](C(=O)[C@@H](O)[C@@H](C)O)[C@@H]1Cc2cc3c(/N=N/c4ccc(S(N)(=O)=O)cc4)c(O)cc(O)c3c(O)c2C(=O)[C@H]1O[C@H]1C[C@@H](O[C@H]2C[C@@H](O[C@H]3C[C@](C)(O)[C@@H](OC(=O)C(C)C)[C@H](C)O3)[C@H](O)[C@@H](C)O2)[C@H](O)[C@@H](C)O1 | > 100000 nM | > 100000 nM | > 100000 nM | inactive | inactive | inactive | inactive | inactive | inactive | inactive | 50000 nM | > 100000 nM | inactive | inactive | inactive | inactive | inactive | > 2 | inactive | inactive | Activity (Punta Toro virus): inactive
5 | CO[C@H](C(=O)[C@@H](O)[C@@H](C)O)[C@@H]1Cc2cc3c(/N=N/c4ccccc4)c(O)cc(O)c3c(O)c2C(=O)[C@H]1O[C@H]1C[C@@H](O[C@H]2C[C@@H](O[C@H]3C[C@](C)(O)[C@@H](OC(=O)C(C)C)[C@H](C)O3)[C@H](O)[C@@H](C)O2)[C@H](O)[C@@H](C)O1 | 6100 nM | 1800 nM | 1600 nM | inactive | inactive | inactive | inactive | inactive | inactive | inactive | 60 nM | ≥ 40 nM | inactive | inactive | inactive | inactive | inactive | 30 | inactive | inactive | Activity (Punta Toro virus): inactive
6 | CO[C@@H]1[C@H](O)C[C@@H](O[C@@H]2C[C@H](Oc3cc(O)c4c(O)c5c(cc4c3)C[C@@H]([C@H](OC)C(=O)[C@@H](O)[C@@H](C)O)[C@H](O[C@H]3C[C@@H](O[C@H]4C[C@@H](O[C@H]6C[C@](C)(O)[C@@H](OC(=O)C(C)C)[C@H](C)O6)[C@H](O)[C@@H](C)O4)[C@H](O)[C@@H](C)O3)C5=O)O[C@H](C)[C@@H]2OC(C)=O)O[C@@H]1C [OLIVOMYCIN I] | 34 nM | 2.5 nM | 4 nM |  |  |  |  |  |  |  | 5 nM | 4 nM |  |  |  |  |  |  |  |  | Activity [13]: Active; IC50 (HCT-116): 55 nM; IC50 (K562): 44 nM; Activity [14]: Active
7 | COc1ccc(/N=N/c2c(O)cc(O)c3c(O)c4c(cc23)C[C@@H]([C@H](OC)C(=O)[C@@H](O)[C@@H](C)O)[C@H](O[C@H]2C[C@@H](O[C@H]3C[C@@H](O[C@H]5C[C@](C)(O)[C@@H](OC(=O)C(C)C)[C@H](C)O5)[C@H](O)[C@@H](C)O3)[C@H](O)[C@@H](C)O2)C4=O)cc1 | 20000 nM | 26000 nM | 7300 nM | inactive | inactive | inactive | inactive | inactive | inactive | inactive | 500 nM | ≥ 4000 nM | inactive | inactive | inactive | inactive | inactive | 52 | inactive | inactive | Activity (Punta Toro virus): inactive
